The source of these data is patent publication US20250221988A1 (Cullgen (Shanghai), Inc., priority 2022, published 2025).

Like-named read-outs stand apart in the source and are kept apart here.

For one experiment, the system named is MV4;11 cells. The experiment is described as follows: Cell viability assay (CellTiter-Glo) in MV4;11 cells. Type of experiment: cell-based. The conditions noted are these: MV4;11 cells, three days, read-out: MV4. Put shortly:
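After three days' exposure to 3-fold serial compound dilutions (8 or 12 points), viability of cells seeded at 5000/well is read by CellTiter-Glo. Runs were done alone or combined with gilteritinib at 10 nM (MV4;11) or 20 nM (MOLM-13); IC50 from nonlinear regression.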

The next experiment has as its system MOLM-13 cells. The experiment can be described thus: Cell viability assay (CellTiter-Glo) in MOLM-13 cells. The conditions noted are these: MOLM-13 cells; for IC50: three days. Type of experiment: cell-based.
Where [1] appears, read: Homo sapiens, MV4-11, 72 h, compound alone, 11 IC50.
[2] abbreviates: with 10 nM gilteritinib, 11 IC50 (nM) + 10 nM Gil.
Where [3] appears, read: Homo sapiens, 72 h, compound alone, read-out: MOLM-13 IC50.
The mark [4] stands for this setting: with gilteritinib, read-out: MOLM-13 IC50 (nM) + 10 nM Gil.

Turning to `Cn1cc(Nc2cn([C@H]3C[C@H](CNc4ccc5c(c4)C(=O)N(C4CCC(=O)NC4=O)C5=O)C3)nc2C2CC2)cn1` (stereo partly drawn) [GS-773, 5-(((Trans-3-(3-cyclopropyl-4-((1-methyl-1H-pyrazol-4-yl)amino)-1H-pyrazol-1-yl)cyclobutyl)methyl)amino)-2-(2,6-dioxopiperidin-3-yl)isoindoline-1,3-dione], the IC50 was less than 10 nM in the experiment on MV4;11 cells (setting [1]), less than 10 nM in the experiment on MV4;11 cells (setting [2]), 10 to 100 nM in the experiment with MOLM-13 cells (setting [3]) and less than 10 nM in the experiment with MOLM-13 cells (setting [4]).
For `Cc1nc(-c2cn(C3CC(O)(CNc4ccc5c(c4)C(=O)N(C4CCC(=O)NC4=O)C5=O)C3)nc2C2CC2)ccc1F` (stereo not drawn) [GS-760, 5-(((trans-3-(3-cyclopropyl-4-(5-fluoro-6-methylpyridin-2-yl)-1H-pyrazol-1-yl)-1-hydroxycyclobutyl)methyl)amino)-2-(2,6-dioxopiperidin-3-yl)isoindoline-1,3-dione], the IC50 in the experiment on MV4;11 cells (compound alone, 11 IC50) was more than 1000 nM; in the experiment on MOLM-13 cells (compound alone, read-out: MOLM-13 IC50) it was more than 1000 nM.
With `Cc1cccc(-c2nn([C@H]3C[C@H](CNc4ccc5c(c4)C(=O)N(C4CCC(=O)NC4=O)C5=O)C3)cc2C2CC2)n1` (stereo partly drawn) [GS-713, 5-(((Trans-3-(4-cyclopropyl-3-(6-methylpyridin-2-yl)-1H-pyrazol-1-yl)cyclobutyl)methyl)amino)-2-(2,6-dioxopiperidin-3-yl)isoindoline-1,3-dione], the IC50 in the experiment with MV4;11 cells (setting [1]) was 10 to 100 nM; with MV4;11 cells (setting [2]), 10 to 100 nM; with MOLM-13 cells (setting [3]), 100 to 1000 nM; with MOLM-13 cells (setting [4]) it was 10 to 100 nM.
In the case of `Cc1nc(-c2cn([C@H]3C[C@H](CNc4ccc5c(c4)C(=O)N(C4CCC(=O)NC4=O)C5)C3)nc2C2CC2)ccc1F` (stereo partly drawn) [GS-732, 3-(6-(((Trans-3-(3-cyclopropyl-4-(5-fluoro-6-methylpyridin-2-yl)-1H-pyrazol-1-yl)cyclobutyl)methyl)amino)-1-oxoisoindolin-2-yl)piperidine-2,6-dione], the IC50 in the experiment on MV4;11 cells (setting [1]) was 100 to 1000 nM; in the experiment with MV4;11 cells (setting [2]) it was 10 to 100 nM; in the experiment on MOLM-13 cells (setting [3]), more than 1000 nM; in the experiment with MOLM-13 cells (setting [4]), 100 to 1000 nM.
Regarding `Cc1cccc(-c2cn(C3CC4(CC(CCNc5ccc6c(c5)C(=O)N(C5CCC(=O)NC5=O)C6=O)C4)C3)nc2C2CC2)n1` (stereo not drawn) [GS-749, 5-((2-(6-(3-Cyclopropyl-4-(6-methylpyridin-2-yl)-1H-pyrazol-1-yl)spiro[3.3]heptan-2-yl)ethyl)amino)-2-(2,6-dioxopiperidin-3-yl)isoindoline-1,3-dione], the IC50 is 10 to 100 nM in the experiment with MV4;11 cells (setting [1]), less than 10 nM with MV4;11 cells (setting [2]), 10 to 100 nM with MOLM-13 cells (setting [3]) and less than 10 nM in the experiment with MOLM-13 cells (setting [4]). The “sensitization of AML cells to GSPT1 degraders by FLT3 inhibition” value in the experiment on MOLM-13 cells (with or without 20 nM gilteritinib, 3 days) is “FLT3 inhibition sensitizes AML cells”.
Take `O=C1CCC(N2C(=O)c3ccc(NC[C@H]4C[C@H](n5nc(C6CC6)c6cc(N7CCNCC7)ccc65)C4)cc3C2=O)C(=O)N1` (stereo partly drawn) [GS-740, 5-(((Trans-3-(3-cyclopropyl-5-(piperazin-1-yl)-1H-indazol-1-yl)cyclobutyl)methyl)amino)-2-(2,6-dioxopiperidin-3-yl)isoindoline-1,3-dione]: the IC50 in the experiment on MV4;11 cells (setting [1]) was more than 1000 nM; in the experiment on MOLM-13 cells (setting [3]), more than 1000 nM; in the experiment on MOLM-13 cells (setting [4]) it was 100 to 1000 nM.
As for `Cc1nc(-c2cn([C@H]3C[C@@H]3CNc3ccc4c(c3)C(=O)N(C3CCC(=O)NC3=O)C4=O)nc2C2CC2)ccc1F` (relative stereo) [GS-643, 5-(((Trans-2-(3-cyclopropyl-4-(5-fluoro-6-methylpyridin-2-yl)-1H-pyrazol-1-yl)cyclopropyl)methyl)amino)-2-(2,6-dioxopiperidin-3-yl)isoindoline-1,3-dione], the IC50 in the experiment with MV4;11 cells (setting [1]) and with MOLM-13 cells (setting [3]) was more than 1000 nM each time.
As for `CC(C)n1ccc2c(-c3cn([C@H]4C[C@H](CNc5ccc6c(c5)C(=O)N(C5CCC(=O)NC5=O)C6=O)C4)nc3C3CC3)ncc(F)c21` (stereo partly drawn) [GS-769, 5-(((Trans-3-(3-cyclopropyl-4-(7-fluoro-1-isopropyl-1H-pyrrolo[3,2-c]pyridin-4-yl)-1H-pyrazol-1-yl)cyclobutyl)methyl)amino)-2-(2,6-dioxopiperidin-3-yl)isoindoline-1,3-dione], the IC50 in the experiment with MV4;11 cells (setting [1]), in the experiment with MV4;11 cells (setting [2]), in the experiment on MOLM-13 cells (setting [3]) and in the experiment on MOLM-13 cells (setting [4]) was less than 10 nM in each case.
Take `O=C1CCC(N2C(=O)c3ccc(NC[C@H]4C[C@H](n5cc(-c6cnc7ccc(N8CCC(O)C8)cc7n6)c(C6CC6)n5)C4)cc3C2=O)C(=O)N1` (stereo partly drawn) [GS-659, 5-(((Trans-3-(3-cyclopropyl-4-(7-(3-hydroxypyrrolidin-1-yl)quinoxalin-2-yl)-1H-pyrazol-1-yl)cyclobutyl)methyl)amino)-2-(2,6-dioxopiperidin-3-yl)isoindoline-1,3-dione]: the IC50 in the experiment with MV4;11 cells (setting [1]), in the experiment with MV4;11 cells (setting [2]), in the experiment on MOLM-13 cells (setting [3]) and in the experiment on MOLM-13 cells (setting [4]) was less than 10 nM in each case.
Take `O=C1CCC(N2C(=O)c3ccc(NC[C@H]4C[C@H](n5cc(-c6ncccc6C6CNC6)c(C6CC6)n5)C4)cc3C2=O)C(=O)N1` (stereo partly drawn) [GS-745, 5-(((Trans-3-(4-(3-(azetidin-3-yl)pyridin-2-yl)-3-cyclopropyl-1H-pyrazol-1-yl)cyclobutyl)methyl)amino)-2-(2,6-dioxopiperidin-3-yl)isoindoline-1,3-dione]: the IC50 in the experiment with MV4;11 cells (setting [1]) and in the experiment on MOLM-13 cells (setting [3]) was more than 1000 nM throughout.
As for `CC(C)n1ccc2nc(-c3cn([C@H]4C[C@H](CNc5ccc6c(c5)C(=O)N(C5CCC(=O)NC5=O)C6=O)C4)nc3C3CC3)ccc21` (stereo partly drawn) [GS-696, 5-(((Trans-3-(3-cyclopropyl-4-(1-isopropyl-1H-pyrrolo[3,2-b]pyridin-5-yl)-1H-pyrazol-1-yl)cyclobutyl)methyl)amino)-2-(2,6-dioxopiperidin-3-yl)isoindoline-1,3-dione], the IC50 is 100 to 1000 nM in the experiment with MV4;11 cells (setting [1]), 10 to 100 nM in the experiment on MV4;11 cells (setting [2]), more than 1000 nM in the experiment on MOLM-13 cells (setting [3]) and 10 to 100 nM in the experiment on MOLM-13 cells (setting [4]).
Take `Cc1nc(-c2cn([C@H]3C[C@H](COc4ccc5c(c4)C(=O)N(C4CCC(=O)NC4=O)C5=O)C3)nc2C2CC2)ccc1F` (stereo partly drawn) [GS-715, 5-((Trans-3-(3-cyclopropyl-4-(5-fluoro-6-methylpyridin-2-yl)-1H-pyrazol-1-yl)cyclobutyl)methoxy)-2-(2,6-dioxopiperidin-3-yl)isoindoline-1,3-dione]: the IC50 in the experiment on MV4;11 cells (setting [1]) is more than 1000 nM; with MV4;11 cells (setting [2]), 100 to 1000 nM; in the experiment with MOLM-13 cells (setting [3]), more than 1000 nM.
Turning to `O=C1CCC(N2C(=O)c3ccc(NC[C@H]4C[C@H](n5cc(-c6cc7c(cn6)cnn7C6CNC6)c(C6CC6)n5)C4)cc3C2=O)C(=O)N1` (stereo partly drawn) [GS-675, 5-(((Trans-3-(4-(1-(azetidin-3-yl)-1H-pyrazolo[4,3-c]pyridin-6-yl)-3-cyclopropyl-1H-pyrazol-1-yl)cyclobutyl)methyl)amino)-2-(2,6-dioxopiperidin-3-yl)isoindoline-1,3-dione], the IC50 was more than 1000 nM with MV4;11 cells (setting [1]), 100 to 1000 nM with MV4;11 cells (setting [2]), more than 1000 nM with MOLM-13 cells (setting [3]) and 100 to 1000 nM in the experiment on MOLM-13 cells (setting [4]).
As to `CN1CCC(n2ncc3cnc(-c4cn([C@H]5C[C@H](CNc6ccc7c(c6)C(=O)N(C6CCC(=O)NC6=O)C7=O)C5)nc4C4CC4)cc32)CC1` (stereo partly drawn) [GS-770, 5-(((Trans-3-(3-cyclopropyl-4-(1-(1-methylpiperidin-4-yl)-1H-pyrazolo[4,3-c]pyridin-6-yl)-1H-pyrazol-1-yl)cyclobutyl)methyl)amino)-2-(2,6-dioxopiperidin-3-yl)isoindoline-1,3-dione], the IC50 in the experiment with MV4;11 cells (setting [1]), with MV4;11 cells (setting [2]), in the experiment with MOLM-13 cells (setting [3]) and with MOLM-13 cells (setting [4]) was 10 to 100 nM throughout.
Take `O=C1CCC(N2C(=O)c3ccc(NC[C@H]4C[C@H](n5cc(NC6CCOCC6)c(C6CC6)n5)C4)cc3C2=O)C(=O)N1` (stereo partly drawn) [GS-708, 5-(((Trans-3-(3-cyclopropyl-4-((tetrahydro-2H-pyran-4-yl)amino)-1H-pyrazol-1-yl)cyclobutyl)methyl)amino)-2-(2,6-dioxopiperidin-3-yl)isoindoline-1,3-dione]: the results for the IC50 in the experiment with MV4;11 cells (setting [1]), with MOLM-13 cells (setting [3]) and with MOLM-13 cells (setting [4]) were more than 1000 nM, more than 1000 nM and 100 to 1000 nM, respectively.
As to `O=C1CCC(N2C(=O)c3ccc(NC[C@H]4C[C@H](n5cc(-c6ccc7cn[nH]c7n6)c(C6CC6)n5)C4)cc3C2=O)C(=O)N1` (stereo partly drawn) [GS-714, 5-(((Trans-3-(3-cyclopropyl-4-(1H-pyrazolo[3,4-b]pyridin-6-yl)-1H-pyrazol-1-yl)cyclobutyl)methyl)amino)-2-(2,6-dioxopiperidin-3-yl)isoindoline-1,3-dione], the IC50 is 10 to 100 nM in the experiment on MV4;11 cells (setting [1]), 10 to 100 nM in the experiment with MV4;11 cells (setting [2]), 100 to 1000 nM in the experiment with MOLM-13 cells (setting [3]) and 10 to 100 nM with MOLM-13 cells (setting [4]).
On to `Cc1cnc2c(c1)c(C1CC1)nn2[C@H]1C[C@H](CNc2ccc3c(c2)C(=O)N(C2CCC(=O)NC2=O)C3=O)C1` (stereo partly drawn) [GS-673, 5-(((Trans-3-(3-cyclopropyl-5-methyl-1H-pyrazolo[3,4-b]pyridin-1-yl)cyclobutyl)methyl)amino)-2-(2,6-dioxopiperidin-3-yl)isoindoline-1,3-dione], for which the IC50 with MV4;11 cells (setting [1]) was more than 1000 nM; in the experiment with MV4;11 cells (setting [2]) it was 100 to 1000 nM; with MOLM-13 cells (setting [3]), more than 1000 nM; in the experiment with MOLM-13 cells (setting [4]), 100 to 1000 nM.
